# Test results published in patent US9132108B2, “Pharmaceutical composition for ameliorating and/or preventing leptin resistance, and use thereof” (HIROSHIMA UNIVERSITY, priority 2009, dated 2015).
# Assays:
# mice given high-fat diet = experiment: High-fat diet-induced accumulation of visceral fat (Example 5); type: in vivo, mouse; details: Group 4 (high-fat diet+flurbiprofen) vs Group 2; 10 mg/kg per day orally, 8 weeks; significance level <5%
# Description: 4 weeks-old mice (C57BL/6 Cr Slc) were divided into four groups each consisting of 7-8 mice. Mice of individual groups were given diets as follows for 8 weeks similarly with Example 4. • Group 1: Normal diet (10 kcal % fat) only • Group 2: High-fat diet (60 kcal % fat) only • Group 3: Normal diet+flurbiprofen • Group 4: High-fat diet+flurbiprofen Flurbiprofen (F8514, produced by SIGMA) was diluted with drinking water so that the administration amount of flurbiprofen would be 10 mg/kg per day, and was orally administered to the mice in the form of drinking water. The mice raised for 8 weeks with high-fat diet or normal diet were cut open along a median line, and the amount of fatty tissue (visceral fat) was measured. Visceral fat was extracted from the abdomen of a mouse, and wet weight of the fat was measured. […] FIG. 9 is a graph showing the amounts of fat contents of mice of individual groups to which flurbiprofen had been administered for 8 weeks. Values in the graph of FIG. 9 are averages of the amounts (g) of fat of mice of each group (± their standard deviations) (n=7-8 with respect to each group). Further, statistic analysis was carried out using t-test.
# [1] = marketed non-steroidal anti-inflammatory agent; cited from earlier work
# mice = experiment: Amount of mice water intake (Example 12); type: in vivo, mouse; details: 10 mg/kg per day orally in drinking water; normal or high-fat diet
# Description: In order to measure the amount of mice water intake, 4 weeks-old male mice (C57BL/6 Cr Slc) were divided into four groups (each consisting of 7-8 mice), were isolated from one another so that there would be one mouse per cage. The mice were then habituated for 2 days. The amount of mice water intake was measured every 24 hours for 4 days from the forenoon on the second day of the habituation, and the amount of mice water intake for 4 days was summed up. • Group 1: Normal diet (10 kcal % fat) only • Group 2: High-fat diet (60 kcal % fat) only • Group 3: Normal diet+flurbiprofen • Group 4: High-fat diet+flurbiprofen Flurbiprofen (F8514, produced by SIGMA) was diluted with drinking water so that the administration amount of flurbiprofen would be 10 mg/kg per day, and was orally administered to the mice in the form of drinking water. FIG. 18 is a graph showing the result of the measurement of the amount of mice water intake. Values in the graph of FIG. 18 are averages of the total amounts (g) of water intake of mice of each group for 4 days (± their standard deviations) (n=7-8 with respect to each group). Further, statistic analysis was carried out using t-test.
# [2] = tested on: mice given high-fat diet (leptin resistance); experiment: Leptin-induced inhibition of food intake (Example 7); type: in vivo, mouse; details: Group 4 (high-fat diet+flurbiprofen); 10 mg/kg per day orally, 8 weeks; leptin 0.5 mg/kg i.p.; no significant difference vs Group 1
# Description: Specifically, 4 weeks-old male mice (C57BL/6 Cr Slc) were divided into four groups each consisting of 6-8 mice. Mice of individual groups were given diets as follows for 8 weeks similarly with Example 5. • Group 1: Normal diet (10 kcal % fat) only • Group 2: High-fat diet (60 kcal % fat) only • Group 3: Normal diet+flurbiprofen • Group 4: High-fat diet+flurbiprofen
# Flurbiprofen (F8514, produced by SIGMA) was diluted with drinking water so that the administration amount of flurbiprofen would be 10 mg/kg per day, and was orally administered to the mice in the form of drinking water.
# FIG. 11 is a drawing showing the procedure of the test in Example 7. […] The mice were then habituated for 3 days. Day 0 was the date when the isolation started. In order to eliminate the influence of injection on feeding behavior, 5 mL/kg of physiological saline was intraperitoneally (i.p.) administered as dummy on Days 3 and 4. […]
# Subsequently, 0.5 mg/kg of leptin (498-OB, rmLeptin, produced by R&D systems) was intraperitoneally (i.p.) administered on Day 6 and the amount of food intake up to 24 hours after the leptin administration was measured on Day 7. Using the ratio of the amount of food intake on Days 6 and 7 to the amount of food intake on Days 5 and 6 as a reference index, what influence leptin had on the amount of food intake (rate of change in amount of food intake) was analyzed. […]
# [3] = tested on: mice given high-fat diet for 6 months (leptin resistance); experiment: Body weight of leptin-resistant mice (6 months high-fat diet), therapeutic effect (Example 8); type: in vivo, mouse; details: 3 mg/kg per day orally
# Text: In Example 8, effectiveness of flurbiprofen in ameliorating leptin resistance was confirmed by measuring a change in body weight of mice as a reference index. Specifically, 4 weeks-old male mice (C57BL/6 Cr Slc) had been given high-fat diet for 6 months so that leptin resistance would be induced in the mice. Thereafter, the mice were divided into two groups (each consisting of 14 mice), and the mice of individual groups were given the following diets for 3 weeks. • Control group (Cont): normal diet (10 kcal % fat) only • Flurbiprofen-administered group (Ful): normal diet+flurbiprofen Flurbiprofen (F8514, produced by SIGMA) was diluted with drinking water so that the administration amount of flurbiprofen would be 3 mg/kg per day, and was orally administered to the mice in the form of drinking water. The rates of change in body weight of the mice of individual groups were measured with the date when administration of flurbiprofen started (0 week) as a reference. Further, the amount of visceral fat (g) was measured. The visceral fat was extracted from abdomens of the mice and wet weight thereof was measured. FIGS. 13 and 14 show the result. FIG. 13 is a graph showing the rates of change in body weight of the mice of the control group and the mice of the flurbiprofen-administered group. […]
structure (smiles),measurement,setting,value
C[C@@H](C(=O)O)c1ccc(-c2ccccc2)c(F)c1 [flurbiprofen],"amount of fat content (visceral fat, wet weight)",mice given high-fat diet,significant decrease in the amount of fat content
same,dependence and development of resistance,[1],no dependence on flurbiprofen or no development of resistance to flurbiprofen is observed
same,total amount of water intake for 4 days,mice,constant regardless of whether flurbiprofen was administered or not
same,rate of change in amount of food intake after leptin administration,[2],reduced food intake caused by leptin
same,time after administration at which the effect of ameliorating leptin resistance is observed,[3]; rate of change in body weight vs control group,1 week
same,average body weight,"[3]; 3 weeks after the administration of flurbiprofen, normal diet after 6 months high-fat diet, before administration 53.479±0.7804 g, control 48.371±0.6387 g, P<0.05",45.543 ± 1.1103 g
